pEC50, pIC50: −log10 of the molar value. Blank lines part the entries; values can stand above or below the compound they belong to.
Key:
[1] = Toxicity in human SW1353 cells; type: cell-based
[2] = molecular target: Tyrosine-protein kinase Lck (Homo sapiens, UniProt P06239); assay: Inhibition of LCK (unknown origin)
[3] = molecular target: MAP kinase-activated protein kinase 2 (Homo sapiens, UniProt P49137)
Description: Inhibition of MK2 (unknown origin) phosphorylation using TAMRA labeled peptide as substrate incubated 30 mins before substrate addition measured after 30 mins

[4] = molecular target: Receptor-type tyrosine-protein kinase FLT3 (Homo sapiens, UniProt P36888); assay: Inhibition of FLT3 (unknown origin)
[5] = molecular target: Testis-specific serine/threonine-protein kinase 2 (Homo sapiens, UniProt Q96PF2); assay: Inhibition of TSSK2 (unknown origin)
[6] = molecular target: Serine/threonine-protein kinase Nek2 (Homo sapiens, UniProt P51955); assay: Inhibition of NEK2 (unknown origin)
[7] = molecular target: Hepatocyte growth factor receptor (Homo sapiens, UniProt P08581); assay: Inhibition of MET (unknown origin)
[8] = molecular target: Inhibitor of nuclear factor kappa-B kinase subunit beta (Homo sapiens, UniProt O14920); assay: Inhibition of IKKB (unknown origin)
[9] = molecular target: RAC-alpha serine/threonine-protein kinase (Homo sapiens, UniProt P31749); assay: Inhibition of AKT1 (unknown origin)
[10] = molecular target: Serine/threonine-protein kinase Chk1 (Homo sapiens, UniProt O14757); assay: Inhibition of CHK1 (unknown origin)
[11] = molecular target: Serine/threonine-protein kinase 3 (Homo sapiens, UniProt Q13188); assay: Inhibition of MST2 (unknown origin)
[12] = molecular target: Tyrosine-protein kinase JAK2 (Homo sapiens, UniProt O60674); assay: Inhibition of JAK2 (unknown origin)
[13] = molecular target: Protein kinase C alpha type (Homo sapiens, UniProt P17252); assay: Inhibition of PKCA (unknown origin)
[14] = molecular target: Epidermal growth factor receptor (Homo sapiens, UniProt P00533); assay: Inhibition of EGFR (unknown origin)
[15] = molecular target: Calcium/calmodulin-dependent protein kinase type IV (Homo sapiens, UniProt Q16566); assay: Inhibition of CAMK4 (unknown origin)
[16] = molecular target: Mitogen-activated protein kinase 1 (Homo sapiens, UniProt P28482); assay: Inhibition of ERK2 (unknown origin)
[17] = molecular target: Glycogen synthase kinase-3 beta (Homo sapiens, UniProt P49841); assay: Inhibition of GSK3B (unknown origin)
[18] = molecular target: Serine/threonine-protein kinase PLK3 (Homo sapiens, UniProt Q9H4B4); assay: Inhibition of PLK3 (unknown origin)
[19] = molecular target: Casein kinase I isoform delta (Homo sapiens, UniProt P48730); assay: Inhibition of CSNK1D (unknown origin)
[20] = molecular target: Interleukin-1 receptor-associated kinase 4 (Homo sapiens, UniProt Q9NWZ3); assay: Inhibition of IRAK4 (unknown origin)
[21] = molecular target: Rho-associated protein kinase 2 (Homo sapiens, UniProt O75116); assay: Inhibition of ROCK2 (unknown origin)
[22] = molecular target: Insulin-like growth factor 1 receptor (Homo sapiens, UniProt P08069); assay: Inhibition of IGF1R (unknown origin)
[23] = molecular target: Ephrin type-B receptor 4 (Homo sapiens, UniProt P54760); assay: Inhibition of EPHB4 (unknown origin)
[24] = test system: THP-1; assay: cells; details: Homo sapiens
Description: Antiinflammatory activity in human THP1 cells assessed as inhibition of LPS-induced TNFalpha production treated 30 mins before LPS addition measured after 3 hrs by ELISA

Chain of Epidermal growth factor receptor (P00533 whole entry): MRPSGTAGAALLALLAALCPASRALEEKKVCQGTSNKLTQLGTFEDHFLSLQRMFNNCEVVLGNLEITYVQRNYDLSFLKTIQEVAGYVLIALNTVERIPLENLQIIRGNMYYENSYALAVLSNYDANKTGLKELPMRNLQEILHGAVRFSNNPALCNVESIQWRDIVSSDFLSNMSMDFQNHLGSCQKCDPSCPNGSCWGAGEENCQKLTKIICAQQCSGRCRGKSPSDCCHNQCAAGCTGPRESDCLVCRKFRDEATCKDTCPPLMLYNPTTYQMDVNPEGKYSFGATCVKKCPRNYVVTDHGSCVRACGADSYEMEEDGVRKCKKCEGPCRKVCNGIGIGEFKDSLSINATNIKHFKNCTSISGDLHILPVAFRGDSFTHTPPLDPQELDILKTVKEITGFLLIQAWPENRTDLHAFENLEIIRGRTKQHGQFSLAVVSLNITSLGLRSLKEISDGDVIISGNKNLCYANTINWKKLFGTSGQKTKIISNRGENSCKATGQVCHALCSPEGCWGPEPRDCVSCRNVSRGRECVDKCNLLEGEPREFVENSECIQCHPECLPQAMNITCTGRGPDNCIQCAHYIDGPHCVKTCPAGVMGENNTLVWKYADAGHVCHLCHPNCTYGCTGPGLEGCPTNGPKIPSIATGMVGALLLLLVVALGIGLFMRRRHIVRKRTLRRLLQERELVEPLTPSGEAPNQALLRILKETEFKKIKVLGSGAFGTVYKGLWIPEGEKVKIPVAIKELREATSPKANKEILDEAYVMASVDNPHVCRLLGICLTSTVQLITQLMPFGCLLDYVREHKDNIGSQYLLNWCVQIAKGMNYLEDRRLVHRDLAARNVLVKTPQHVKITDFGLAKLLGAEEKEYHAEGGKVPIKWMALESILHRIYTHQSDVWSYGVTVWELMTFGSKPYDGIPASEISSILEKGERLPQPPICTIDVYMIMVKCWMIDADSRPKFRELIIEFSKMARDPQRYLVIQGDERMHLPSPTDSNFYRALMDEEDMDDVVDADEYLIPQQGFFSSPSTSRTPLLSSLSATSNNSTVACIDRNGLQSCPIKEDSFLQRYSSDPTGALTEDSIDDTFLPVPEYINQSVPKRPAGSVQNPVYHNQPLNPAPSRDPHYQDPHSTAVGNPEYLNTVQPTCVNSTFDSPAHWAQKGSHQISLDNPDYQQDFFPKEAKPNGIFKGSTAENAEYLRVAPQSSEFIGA
Chain of Glycogen synthase kinase-3 beta (P49841 whole entry): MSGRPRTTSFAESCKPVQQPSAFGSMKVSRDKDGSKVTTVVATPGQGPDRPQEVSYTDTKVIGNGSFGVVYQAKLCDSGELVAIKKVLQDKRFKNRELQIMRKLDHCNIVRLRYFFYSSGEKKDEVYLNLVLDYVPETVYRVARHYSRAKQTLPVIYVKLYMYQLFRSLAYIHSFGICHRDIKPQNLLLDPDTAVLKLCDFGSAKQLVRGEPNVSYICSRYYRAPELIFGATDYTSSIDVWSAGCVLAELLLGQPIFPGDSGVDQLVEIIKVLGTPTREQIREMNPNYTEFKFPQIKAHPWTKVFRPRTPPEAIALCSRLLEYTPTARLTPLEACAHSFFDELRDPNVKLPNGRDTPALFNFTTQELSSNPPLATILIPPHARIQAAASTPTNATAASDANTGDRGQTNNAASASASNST
Chain of Interleukin-1 receptor-associated kinase 4 (Q9NWZ3 whole entry): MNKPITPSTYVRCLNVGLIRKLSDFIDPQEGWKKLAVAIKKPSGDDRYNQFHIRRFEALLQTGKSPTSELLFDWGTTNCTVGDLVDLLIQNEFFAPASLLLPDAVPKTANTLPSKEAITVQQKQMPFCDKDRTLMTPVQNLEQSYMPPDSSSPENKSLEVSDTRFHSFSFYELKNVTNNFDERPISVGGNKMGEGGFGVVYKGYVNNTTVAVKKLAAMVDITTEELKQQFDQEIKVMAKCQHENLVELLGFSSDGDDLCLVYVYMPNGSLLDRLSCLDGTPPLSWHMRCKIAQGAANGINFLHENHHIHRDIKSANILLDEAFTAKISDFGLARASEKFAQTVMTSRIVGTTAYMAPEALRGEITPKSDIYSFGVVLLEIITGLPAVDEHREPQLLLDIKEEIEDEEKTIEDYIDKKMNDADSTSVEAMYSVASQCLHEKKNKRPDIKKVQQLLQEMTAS
Chain of Inhibitor of nuclear factor kappa-B kinase subunit beta (O14920 whole entry): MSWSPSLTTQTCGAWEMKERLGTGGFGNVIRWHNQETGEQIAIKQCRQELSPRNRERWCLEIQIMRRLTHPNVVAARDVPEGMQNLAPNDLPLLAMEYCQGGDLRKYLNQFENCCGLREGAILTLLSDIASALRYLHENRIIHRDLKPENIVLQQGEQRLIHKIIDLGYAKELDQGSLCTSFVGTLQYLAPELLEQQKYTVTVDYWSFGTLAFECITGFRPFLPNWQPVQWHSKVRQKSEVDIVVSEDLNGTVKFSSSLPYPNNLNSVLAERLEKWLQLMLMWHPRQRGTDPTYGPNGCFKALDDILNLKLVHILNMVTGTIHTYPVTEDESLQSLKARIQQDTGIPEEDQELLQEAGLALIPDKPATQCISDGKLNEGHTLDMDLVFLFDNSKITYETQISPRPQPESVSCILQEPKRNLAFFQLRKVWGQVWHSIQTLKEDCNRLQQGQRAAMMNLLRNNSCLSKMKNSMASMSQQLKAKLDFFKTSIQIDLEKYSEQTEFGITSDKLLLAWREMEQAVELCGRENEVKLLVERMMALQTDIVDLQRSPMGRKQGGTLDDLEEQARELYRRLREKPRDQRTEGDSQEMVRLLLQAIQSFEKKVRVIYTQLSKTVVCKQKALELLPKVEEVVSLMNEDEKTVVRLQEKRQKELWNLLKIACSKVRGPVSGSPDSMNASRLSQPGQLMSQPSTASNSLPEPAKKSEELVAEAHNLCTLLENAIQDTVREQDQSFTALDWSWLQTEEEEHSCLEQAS
Chain of Receptor-type tyrosine-protein kinase FLT3 (P36888 whole entry): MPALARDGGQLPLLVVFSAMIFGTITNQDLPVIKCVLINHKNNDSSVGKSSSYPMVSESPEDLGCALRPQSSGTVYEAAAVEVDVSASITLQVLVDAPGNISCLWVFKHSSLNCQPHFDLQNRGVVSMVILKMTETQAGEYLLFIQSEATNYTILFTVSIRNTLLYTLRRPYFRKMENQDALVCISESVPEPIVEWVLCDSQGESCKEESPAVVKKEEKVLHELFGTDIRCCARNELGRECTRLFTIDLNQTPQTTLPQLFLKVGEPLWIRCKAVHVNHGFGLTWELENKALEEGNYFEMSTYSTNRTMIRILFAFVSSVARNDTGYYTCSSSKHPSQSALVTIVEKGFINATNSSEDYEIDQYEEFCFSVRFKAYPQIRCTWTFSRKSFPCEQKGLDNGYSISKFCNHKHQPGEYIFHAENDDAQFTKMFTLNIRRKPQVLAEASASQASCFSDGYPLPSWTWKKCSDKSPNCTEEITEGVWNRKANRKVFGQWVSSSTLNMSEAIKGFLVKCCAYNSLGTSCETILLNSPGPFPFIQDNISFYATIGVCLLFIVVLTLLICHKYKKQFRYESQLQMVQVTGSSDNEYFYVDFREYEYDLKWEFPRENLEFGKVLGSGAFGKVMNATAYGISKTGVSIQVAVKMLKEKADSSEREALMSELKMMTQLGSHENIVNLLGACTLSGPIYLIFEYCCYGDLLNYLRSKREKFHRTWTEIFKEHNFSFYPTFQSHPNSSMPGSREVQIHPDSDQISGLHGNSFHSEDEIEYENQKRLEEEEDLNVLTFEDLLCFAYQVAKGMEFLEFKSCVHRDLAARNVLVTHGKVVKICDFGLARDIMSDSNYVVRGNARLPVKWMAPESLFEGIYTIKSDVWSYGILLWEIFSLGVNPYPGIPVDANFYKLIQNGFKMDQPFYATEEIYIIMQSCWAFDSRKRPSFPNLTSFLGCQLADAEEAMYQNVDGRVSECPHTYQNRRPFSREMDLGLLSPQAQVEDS
Chain of Mitogen-activated protein kinase 1 (P28482 whole entry): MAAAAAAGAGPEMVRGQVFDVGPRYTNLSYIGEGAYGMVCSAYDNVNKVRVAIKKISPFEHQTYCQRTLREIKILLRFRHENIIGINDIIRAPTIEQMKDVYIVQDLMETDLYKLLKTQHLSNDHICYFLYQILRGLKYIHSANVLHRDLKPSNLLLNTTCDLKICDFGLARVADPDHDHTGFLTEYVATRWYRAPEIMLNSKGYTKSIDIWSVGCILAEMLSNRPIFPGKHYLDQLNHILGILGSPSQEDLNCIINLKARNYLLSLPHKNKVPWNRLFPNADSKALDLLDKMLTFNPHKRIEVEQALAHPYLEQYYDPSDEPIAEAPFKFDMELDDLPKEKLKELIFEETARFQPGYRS
Chain of Tyrosine-protein kinase Lck (P06239 whole entry): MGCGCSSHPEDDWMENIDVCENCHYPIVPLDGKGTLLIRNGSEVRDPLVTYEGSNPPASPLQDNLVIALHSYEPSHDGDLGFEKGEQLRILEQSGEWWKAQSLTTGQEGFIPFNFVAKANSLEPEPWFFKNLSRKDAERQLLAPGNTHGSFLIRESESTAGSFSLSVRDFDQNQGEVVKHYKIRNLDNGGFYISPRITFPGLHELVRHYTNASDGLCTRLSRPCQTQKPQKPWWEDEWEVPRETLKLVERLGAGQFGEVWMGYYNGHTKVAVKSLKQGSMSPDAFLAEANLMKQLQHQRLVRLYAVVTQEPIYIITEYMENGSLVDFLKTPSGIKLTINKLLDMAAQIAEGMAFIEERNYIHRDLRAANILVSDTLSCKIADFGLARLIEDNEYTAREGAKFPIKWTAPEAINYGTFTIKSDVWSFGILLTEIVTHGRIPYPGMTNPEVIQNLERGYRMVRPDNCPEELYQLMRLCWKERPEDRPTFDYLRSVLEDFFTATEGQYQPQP

SMILES: O=C1c2oc(-c3ccc(Cl)cc3)cc2Cc2cc(N3CCNCC3)ccc2N1Cc1ccccn1
CC50 [1]: 17.4 µM

pIC50 [2]: < 4.72 | pIC50 [3]: 7.66 | pIC50 [4]: < 4.52 | pIC50 [5]: < 4.52 | pIC50 [6]: 4.89 | pIC50 [7]: < 4.52 | pIC50 [8]: 4.62 | pIC50 [9]: 4.80 | pIC50 [10]: < 4.74 | pIC50 [11]: < 4.92 | pIC50 [12]: 4.96 | pIC50 [13]: 5.00 | pIC50 [14]: < 4.52 | pIC50 [15]: 4.57 | pIC50 [16]: < 4.52 | pIC50 [17]: < 4.52 | pIC50 [18]: < 4.52 | pIC50 [19]: < 4.52 | pIC50 [20]: 4.59 | pIC50 [21]: < 4.70 | pIC50 [22]: < 4.52 | pIC50 [23]: < 4.52
SMILES: O=C1c2oc(-c3ccc(Cl)cc3)cc2Cc2cc(N3CCNCC3)ccc2N1Cc1ccccc1-c1cccnc1

pEC50 [24]: 6.82
SMILES: N#Cc1ccc(-c2cc3c(o2)C(=O)N(Cc2ccccc2-c2cncnc2)c2ccc(N4CCNCC4)cc2C3)cc1

Reference: ChEMBL document CHEMBL2384992, “Conformation constraint of anilides enabling the discovery of tricyclic lactams as potent MK2 non-ATP competitive inhibitors” (Bioorg Med Chem Lett, 2013)
